# Numbered stars: 1 amine (or outer) side, 2 acyl side, 3 side chain; on linkers, the order of the positions; unused ones are H or OH. Square brackets hold non-standard residues; d marks the D form. Side chains are listed from the residue outwards. Peptide text beside a SMILES is read from it. * marks the point of attachment. γGlu = O=C(O)[C@H](CCC(=O)[*:2])N[*:1]; Stearoyl = CCCCCCCCCCCCCCCCCC(=O)*; Palmitoyl = CCCCCCCCCCCCCCCC(=O)*; Aib = CC(C)(N)C(=O)O
# System: not listed separately
# Assay: Thioflavin T (ThT) assay for physical stability (fibrillation)
# Format: physicochemical
# Settings: 3 mg/ml, 100 mM acetate pH 4.5 with m-cresol, 37° C. shaking
# Excerpt: Low physical stability of a peptide solution may lead to amyloid fibril formation, which is observed as well-ordered, thread-like macromolecular structures in the sample, which eventually may lead to gel formation. Thioflavin T (ThT) is widely used to visualize and quantify the presence of misfolded protein aggregates. [Biancalana et al. (2010) Biochimica et Biophysica Acta. 1804 (7): 1405-1412]. […] Enzymol. 309, 274-284]. The time course for fibril formation often follows the characteristic shape of a sigmoidal curve and can be separated into three regions: a lag phase, a fast growth phase, and a plateau phase.
# The typical fibril formation process starts with the lag phase in which the amount of partially folded peptide turned into fibrils is not significant enough to be detected. The lag-time corresponds to the time the critical mass of the nucleus is built. Afterwards, a drastic elongation phase follows and fibril concentration increases rapidly.
# Investigations were carried out to determine fibrillation tendencies under stress conditions by shaking at 37° C. within Fluoroskan Ascent FL.
# For the tests in Fluoroskan Ascent FL, 200 μL sample were placed into a 96 well mictrotiter plate PS, flat bottom, Greiner Fluotrac No. 655076. Plates were sealed with Scotch Tape (Quiagen). Samples were stressed by continuous cycles of 10 s shaking at 960 rpm and 50 s rest period at 37° C. The kinetic was monitored by measuring fluorescence intensity every 20 minutes.
# Peptides were diluted in a buffer system to a final concentration of 3 mg/ml. 20 μL of a 10.1 mM ThT solution in H2O were added to 2 mL of peptide solution to receive a final concentration of 100 μM ThT. For each sample eight replicates were tested.
# Tht buffer system A) 100 mM Acetate pH 4.5 including m-cresol (100 mM Natriumacetat trihydrat, pH adjustment using 2N CH3COOH, 2.7 mg/mL m-cresol) Tht buffer system B) 100 mM citrate buffer pH 6.0
# Lag time in hours in Thioflavin T (ThT) assay of peptide samples was determined in ThT buffer system A as described in Methods.
row,Compound,Lag time before increase
1,"CCCCCCCCCCCCCCCC(=O)N[C@@H](CCC(=O)NCCCC[C@H](NC(=O)[C@H](CC(C)C)NC(=O)[C@H](CCCCN)NC(=O)[C@H](CO)NC(=O)[C@H](CC(C)C)NC(=O)[C@H](CC(=O)O)NC(=O)[C@H](CO)NC(=O)[C@@H](NC(=O)[C@H](Cc1ccccc1)NC(=O)[C@@H](NC(=O)CNC(=O)[C@H](Cc1c[nH]cn1)NC(=O)C(C)(C)NC(=O)[C@@H](N)Cc1c[nH]cn1)[C@@H](C)O)[C@@H](C)O)C(=O)N[C@@H](CCC(=O)O)C(=O)N[C@@H](CCC(=O)O)C(=O)N[C@@H](CCC(N)=O)C(=O)N[C@@H](CCCNC(=N)N)C(=O)N[C@@H](CCC(N)=O)C(=O)NC(C)(C)C(=O)N[C@@H](CCC(=O)O)C(=O)N[C@@H](Cc1ccccc1)C(=O)N[C@H](C(=O)N[C@@H](CCC(=O)O)C(=O)N[C@@H](Cc1c[nH]c2ccccc12)C(=O)N[C@@H](CC(C)C)C(=O)N[C@@H](CCCCN)C(=O)N[C@@H](C)C(=O)N[C@H](C)C(=O)NCC(=O)N1CCC[C@H]1C(=O)N1CCC[C@H]1C(=O)N[C@@H](CO)C(=O)NC(C)(C)C(=O)N[C@@H](CCCCN)C(=O)N1CCC[C@H]1C(=O)N1CCC[C@H]1C(=O)N1CCC[C@H]1C(=O)N[C@@H](CCCCN)C(N)=O)[C@@H](C)CC)C(=O)O [SEQ ID NO: 16, H-Aib-H-G-T-F-T-S-D-L-S-K-L-K[gGlu-Palm]-E-E-Q-R-Q-Aib-E-F-I-E-W-L-K-A-dAla-G-P-P-S-Aib-K-P-P-P-K-NH2] (H-H[Aib]HGTFTSDLSKLK([γGlu-Palmitoyl])EEQRQ[Aib]EFIEWLKA[dA]GPPS[Aib]KPPPK-NH2)",>45 h
2,"CCCCCCCCCCCCCCCCCC(=O)N[C@@H](CCC(=O)NCCCC[C@H](NC(=O)[C@H](CC(C)C)NC(=O)[C@H](CCCCN)NC(=O)[C@H](CO)NC(=O)[C@H](CC(C)C)NC(=O)[C@H](CC(=O)O)NC(=O)[C@H](CO)NC(=O)[C@@H](NC(=O)[C@H](Cc1ccccc1)NC(=O)[C@@H](NC(=O)CNC(=O)[C@H](Cc1c[nH]cn1)NC(=O)C(C)(C)NC(=O)[C@@H](N)Cc1c[nH]cn1)[C@@H](C)O)[C@@H](C)O)C(=O)N[C@@H](CCC(=O)O)C(=O)N[C@@H](CCC(=O)O)C(=O)N[C@@H](CCC(N)=O)C(=O)N[C@@H](CCCNC(=N)N)C(=O)N[C@@H](CCC(N)=O)C(=O)NC(C)(C)C(=O)N[C@@H](CCC(=O)O)C(=O)N[C@@H](Cc1ccccc1)C(=O)N[C@H](C(=O)N[C@@H](CCC(=O)O)C(=O)N[C@@H](Cc1c[nH]c2ccccc12)C(=O)N[C@@H](CC(C)C)C(=O)N[C@@H](CCCCN)C(=O)N[C@@H](C)C(=O)N[C@H](C)C(=O)NCC(=O)N1CCC[C@H]1C(=O)N1CCC[C@H]1C(=O)N[C@@H](CO)C(=O)NC(C)(C)C(=O)N[C@@H](CCCCN)C(=O)N1CCC[C@H]1C(=O)N1CCC[C@H]1C(=O)N1CCC[C@H]1C(=O)N[C@@H](CCCCN)C(N)=O)[C@@H](C)CC)C(=O)O [SEQ ID NO: 17, H-Aib-H-G-T-F-T-S-D-L-S-K-L-K[gGlu-Stea]-E-E-Q-R-Q-Aib-E-F-I-E-W-L-K-A-dAla-G-P-P-S-Aib-K-P-P-P-K-NH2] (H-H[Aib]HGTFTSDLSKLK([γGlu-Stearoyl])EEQRQ[Aib]EFIEWLKA[dA]GPPS[Aib]KPPPK-NH2)",>45 h

# System: female diabetic db/db mice
# Assay: Acute effects after s.c. treatment on blood glucose in non-fasting female diabetic db/db mice
# Format: in vivo
# Settings: single 30 μg/kg s.c.
# Experimental: Female healthy, lean BKS.Cg-(lean)/OlaHsd and diabetes-prone, obese BKS.Cg-+Lepr^db/+Lepr^db/OlaHsd mice were ordered group housed from Envigo RMS Inc., shipped group housed and remained group housed in shoebox caging with wood chip bedding until day 15 of the predose phase. At the study start mice were approximately 12 weeks old.
# Mice were housed under vivarium conditions including a 12 h light/dark cycle (light phase 04:00 AM-4:00 PM), room temperatures between 23-26° C. and a relative humidity between 30-70%. All animals had free access to water and Purina Fomulab Diet 5008.
# On predose day 9 blood glucose and body mass (approximately between 08:00-10:00 AM) as well as HbA1c measurements were performed. On day 15 of the predose phase animals were assigned to treatment groups (n=8) and to new cages to match mean HbA1c and body masses between all db/db groups. An age-matched lean group was included in the study as a healthy, lean reference.
# Prior to day 1 of the dosing phase, the test article was diluted with Phosphate Buffered Saline (PBS, Gibco, without CaCl2 and MgCl2) to a concentration of 1 mg/mL and aliquots of this stock solution were stored at approximately ≤−60° C. On day 1 of the dosing phase the stock aliquot was thawed and the injected test article solution was prepared fresh by diluting it with PBS to achieve the desired concentration.
# On Day 1 of the dosing phase db/db mice were either treated once with a s.c. injection of PBS-vehicle or 30 μg/kg test article. The lean reference group was treated once with a s.c. injection of PBS-vehicle. The dosing was initiated and completed between 08:00 and 10:00 AM. The applied volume was 5 ml/kg and the dose was adjusted to the most recent body mass recording of each individual.
# Animals had unlimited access to water and feed during the experiment. On day 1 of the dosing phase approximately 5 μL of blood were collected via tail clips at minute −30 and 0 prior to any other inlife activities. At minute 0 mice received a s.c. dose of either PBS-vehicle or 30 μg/kg test article. Further blood samples were harvested at hour 0.25, 0.5, 1, 1.5, 2, 3, 4, 6, 8, and 24 post-dose. Glucose measurements were performed in whole blood using AlphaTRAK glucometers. If the glucose concentrations of two measurements differed by more than 20 mg/dL a third value was recorded. The Area Under the Curve (AUC) for blood glucose was calculated via the trapezoid method and for the duration of the 24 post-dose hours.
# In the Figures data are depicted as means±SEM. […] A One Way Analysis of Variance and multiple comparisons (Dunnett's Method) were performed comparing the group of diabetic, obese db/db vehicle mice (n=8) with each diabetic, obese db/db test article treated mice (n=8). […] Non-diabetic, lean-vehicle group data are depicted in the Figures serving as a reference dataset for the non-obese, non-diabetic state.
row,Compound,mean blood glucose concentration 24 hours post-dose relative to baseline
1,"CCCCCCCCCCCCCCCC(=O)N[C@@H](CCC(=O)NCCCC[C@H](NC(=O)[C@H](CC(C)C)NC(=O)[C@H](CCCCN)NC(=O)[C@H](CO)NC(=O)[C@H](CC(C)C)NC(=O)[C@H](CC(=O)O)NC(=O)[C@H](CO)NC(=O)[C@@H](NC(=O)[C@H](Cc1ccccc1)NC(=O)[C@@H](NC(=O)CNC(=O)[C@H](Cc1c[nH]cn1)NC(=O)C(C)(C)NC(=O)[C@@H](N)Cc1c[nH]cn1)[C@@H](C)O)[C@@H](C)O)C(=O)N[C@@H](CCC(=O)O)C(=O)N[C@@H](CCC(=O)O)C(=O)N[C@@H](CCC(N)=O)C(=O)N[C@@H](CCCNC(=N)N)C(=O)N[C@@H](CCC(N)=O)C(=O)NC(C)(C)C(=O)N[C@@H](CCC(=O)O)C(=O)N[C@@H](Cc1ccccc1)C(=O)N[C@H](C(=O)N[C@@H](CCC(=O)O)C(=O)N[C@@H](Cc1c[nH]c2ccccc12)C(=O)N[C@@H](CC(C)C)C(=O)N[C@@H](CCCCN)C(=O)N[C@@H](C)C(=O)N[C@H](C)C(=O)NCC(=O)N1CCC[C@H]1C(=O)N1CCC[C@H]1C(=O)N[C@@H](CO)C(=O)NC(C)(C)C(=O)N[C@@H](CCCCN)C(=O)N1CCC[C@H]1C(=O)N1CCC[C@H]1C(=O)N1CCC[C@H]1C(=O)N[C@@H](CCCCN)C(N)=O)[C@@H](C)CC)C(=O)O [SEQ ID NO: 16, H-Aib-H-G-T-F-T-S-D-L-S-K-L-K[gGlu-Palm]-E-E-Q-R-Q-Aib-E-F-I-E-W-L-K-A-dAla-G-P-P-S-Aib-K-P-P-P-K-NH2] (H-H[Aib]HGTFTSDLSKLK([γGlu-Palmitoyl])EEQRQ[Aib]EFIEWLKA[dA]GPPS[Aib]KPPPK-NH2)",at or close to baseline
